Test results reported in ChEMBL document CHEMBL1201862, “PubChem BioAssay data set” (2004).
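Exposure lasted 48 hours, with cells grown in 96-well plates and compounds tested at five concentrations. GI50: concentration for 50% inhibition of growth.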 Calls of active or inactive are those of the source. No stated cut-off is given here; in the data, active = GI50 up to about 1.1 µM and inactive = higher.

How the values were obtained:
Assay in all cases: NCI anticancer screen, dose series, 48 h
EKVX = test system: EKVX
M14 = test system: M14
MDA-N = test system: MDA-N
PC-3 = test system: PC-3
SR = test system: SR
COLO 205 = test system: COLO 205
T47D = test system: T47D
MDA-MB-435 = test system: MDA-MB-435
Hs-578T = test system: Hs-578T
SNB-19 = test system: SNB-19
SK-MEL-5 = test system: SK-MEL-5
OVCAR-4 = test system: OVCAR-4
MDA-MB-231 = test system: MDA-MB-231
CCRF-CEM = test system: CCRF-CEM
MOLT-4 = test system: MOLT-4
CAKI-1 = test system: CAKI-1
RPMI-8226 = test system: RPMI-8226
HL-60 = test system: HL-60
HCT-116 = test system: HCT-116
U-251 = test system: U-251
SK-OV-3 = test system: SK-OV-3
RXF 393 = test system: RXF 393
HOP-62 = test system: HOP-62
HOP-92 = test system: HOP-92
LOX IMVI = test system: LOX IMVI
UACC-62 = test system: UACC-62
UO-31 = test system: UO-31
SF-295 = test system: SF-295
ACHN = test system: ACHN
HT-29 = test system: HT-29
NCI/ADR-RES = test system: NCI/ADR-RES
SF-268 = test system: SF-268
TK-10 = test system: TK-10
786-0 = test system: 786-0
SF-539 = test system: SF-539
KM12 = test system: KM12
HCC 2998 = test system: HCC 2998
Malme-3M = test system: Malme-3M
A549 = test system: A549
SW-620 = test system: SW-620
K562 = test system: K562
NCI-H23 = test system: NCI-H23
OVCAR-3 = test system: OVCAR-3
MCF7 = test system: MCF7
SK-MEL-28 = test system: SK-MEL-28
UACC-257 = test system: UACC-257
DU-145 = test system: DU-145
NCI-H522 = test system: NCI-H522
SK-MEL-2 = test system: SK-MEL-2
BT-549 = test system: BT-549
NCI-H226 = test system: NCI-H226
SNB-75 = test system: SNB-75
IGROV-1 = test system: IGROV-1
OVCAR-5 = test system: OVCAR-5
HCT-15 = test system: HCT-15
OVCAR-8 = test system: OVCAR-8
SN12C = test system: SN12C
NCI-H460 = test system: NCI-H460

With `COc1ccc2nc(N/N=C/c3ccc(C)s3)cc(C)c2c1` the GI50 (EKVX) was 26.4 µM (inactive), the GI50 (M14) was 16.6 µM (inactive) and the GI50 (MDA-N) was 16.3 µM (inactive). The GI50 (PC-3) was 17.1 µM (inactive), the GI50 (SR) was 25.4 µM (inactive) and the GI50 (COLO 205) was 19.4 µM (inactive). The GI50 (T47D) was 17.1 µM (inactive), the GI50 (MDA-MB-435) was 19 µM (inactive) and the GI50 (Hs-578T) was 22.1 µM (inactive). For the same molecule, the GI50 (SNB-19) was 17.3 µM (inactive), the GI50 (SK-MEL-5) was 15.5 µM (inactive) and the GI50 (OVCAR-4) was 13.9 µM (inactive). For the same molecule, the GI50 (MDA-MB-231) was 21.5 µM (inactive), the GI50 (CCRF-CEM) was 28.1 µM (inactive) and the GI50 (MOLT-4) was 12.9 µM (inactive). For the same molecule, the GI50 (CAKI-1) was 23 µM (inactive), the GI50 (RPMI-8226) was 11.2 µM (inactive) and the GI50 (HL-60) was 27.2 µM (inactive). For the same molecule, the GI50 (HCT-116) was 4.65 µM (inactive), the GI50 (U-251) was 21.1 µM (inactive) and the GI50 (SK-OV-3) was 22.9 µM (inactive). For the same molecule, the GI50 (RXF 393) was 19.2 µM (inactive), the GI50 (HOP-62) was 20.1 µM (inactive) and the GI50 (HOP-92) was 13.9 µM (inactive). For the same molecule, the GI50 (LOX IMVI) was 16.3 µM (inactive), the GI50 (UACC-62) was 16.8 µM (inactive) and the GI50 (UO-31) was 17.7 µM (inactive). The GI50 (SF-295) was 16.9 µM (inactive), the GI50 (ACHN) was 17.7 µM (inactive) and the GI50 (HT-29) was 6.08 µM (inactive). The GI50 (NCI/ADR-RES) was 19.7 µM (inactive), the GI50 (SF-268) was 20.1 µM (inactive) and the GI50 (TK-10) was 21.6 µM (inactive). The GI50 (786-0) was 13 µM (inactive), the GI50 (SF-539) was 16.5 µM (inactive) and the GI50 (KM12) was 19.7 µM (inactive). The GI50 (HCC 2998) was 16 µM (inactive), the GI50 (Malme-3M) was 31 µM (inactive) and the GI50 (A549) was > 100 µM (inactive). For the same molecule, the GI50 (SW-620) was 25.1 µM (inactive), the GI50 (K562) was 14 µM (inactive) and the GI50 (NCI-H23) was 13.5 µM (inactive). The GI50 (OVCAR-3) was 19.6 µM (inactive), the GI50 (MCF7) was 18 µM (inactive) and the GI50 (SK-MEL-28) was 26.5 µM (inactive). The GI50 (UACC-257) was 17.1 µM (inactive), the GI50 (DU-145) was 17.7 µM (inactive) and the GI50 (NCI-H522) was 39.7 µM (inactive). The GI50 (SK-MEL-2) was 21.7 µM (inactive), the GI50 (BT-549) was 14.9 µM (inactive) and the GI50 (NCI-H226) was 14.8 µM (inactive). For the same molecule, the GI50 (SNB-75) was 24.3 µM (inactive), the GI50 (IGROV-1) was 26.2 µM (inactive) and the GI50 (OVCAR-5) was 15.7 µM (inactive). For the same molecule, the GI50 (HCT-15) was 7.96 µM, the GI50 (OVCAR-8) was 19.5 µM (inactive) and the GI50 (SN12C) was 17.9 µM (inactive).
`Cc1ccc(C(=O)N/N=C(\N=N\c2ccccc2Cl)c2ccc(N(C)C)cc2)cc1` was tested, and the GI50 (EKVX) was 27.2 µM (inactive), the GI50 (M14) was 42.7 µM (inactive) and the GI50 (MDA-N) was 11.5 µM (inactive). The GI50 (PC-3) was 49 µM (inactive), the GI50 (SR) was 18.1 µM (inactive) and the GI50 (COLO 205) was 38.6 µM (inactive). The GI50 (T47D) was 2.64 µM (inactive), the GI50 (MDA-MB-435) was 10.5 µM (inactive) and the GI50 (Hs-578T) was > 100 µM (inactive). The GI50 (SNB-19) was 28.1 µM (inactive), the GI50 (SK-MEL-5) was 21.3 µM (inactive) and the GI50 (OVCAR-4) was 7.33 µM (inactive). The GI50 (MDA-MB-231) was 52.6 µM (inactive), the GI50 (CCRF-CEM) was 16.6 µM (inactive) and the GI50 (MOLT-4) was 20 µM (inactive). The GI50 (CAKI-1) was 30.5 µM (inactive), the GI50 (RPMI-8226) was 23.7 µM (inactive) and the GI50 (HL-60) was 14.1 µM (inactive). The GI50 (HCT-116) was 29.2 µM (inactive), the GI50 (U-251) was 62.1 µM (inactive) and the GI50 (SK-OV-3) was 20.4 µM (inactive). For the same molecule, the GI50 (HOP-92) was > 100 µM (inactive), the GI50 (LOX IMVI) was 43.6 µM (inactive) and the GI50 (UACC-62) was 4.55 µM (inactive). For the same molecule, the GI50 (UO-31) was 29.4 µM (inactive), the GI50 (SF-295) was 28.8 µM (inactive) and the GI50 (NCI-H460) was 37.3 µM (inactive). For the same molecule, the GI50 (ACHN) was 13.3 µM (inactive), the GI50 (HT-29) was 33.1 µM (inactive) and the GI50 (NCI/ADR-RES) was 27.3 µM (inactive). For the same molecule, the GI50 (SF-268) was > 100 µM (inactive), the GI50 (TK-10) was > 100 µM (inactive) and the GI50 (786-0) was 48.3 µM (inactive). The GI50 (SF-539) was 21.4 µM (inactive), the GI50 (KM12) was 21.9 µM (inactive) and the GI50 (HCC 2998) was 25.1 µM (inactive). For the same molecule, the GI50 (A549) was 50.6 µM (inactive), the GI50 (SW-620) was > 100 µM (inactive) and the GI50 (K562) was 17.1 µM (inactive). The GI50 (NCI-H23) was 50.7 µM (inactive), the GI50 (OVCAR-3) was 30.3 µM (inactive) and the GI50 (MCF7) was 28.2 µM (inactive). For the same molecule, the GI50 (SK-MEL-28) was > 100 µM (inactive), the GI50 (UACC-257) was 27.5 µM (inactive) and the GI50 (DU-145) was 2.61 µM (inactive). For the same molecule, the GI50 (NCI-H522) was 27.5 µM (inactive), the GI50 (SK-MEL-2) was 54.6 µM (inactive) and the GI50 (BT-549) was 29.3 µM (inactive). The GI50 (NCI-H226) was 60.8 µM (inactive), the GI50 (IGROV-1) was > 100 µM (inactive) and the GI50 (OVCAR-5) was 68.4 µM (inactive). For the same molecule, the GI50 (HCT-15) was 30.6 µM, the GI50 (OVCAR-8) was 61.5 µM (inactive) and the GI50 (SN12C) was > 100 µM (inactive).
